In patent US20210380586A1, “2-INDOLYL IMIDAZO[4,5-D]PHENANTHROLINE POLYMORPHS AND COMPOSITIONS REGARDING THE SAME” (Aptose Biosciences Inc., priority 2020, published 2021):

Columns and labels:
[1] = Effect of drying on polymorphic form, XRPD; type: physicochemical
Experimental: Crystalline Compound I-tetrahydrate Form 2 was dried under varying temperature, pressure, and time as indicted in Table 2. After the drying, the resulting crystals were analyzed by XRPD to determine its polymorphic form.

[2] = USP <788> Method 1 HIAC particle count after mixing with Lactated Ringers; type: physicochemical; conditions: 4 mg/mL mixed with Lactated Ringers 2:1, held in glass or Nalgene container
Experimental: In USP <788> monograph, two methods were provided to determine particles or particulate matter in an injectable drug, i.e. using an analytical instrument to count particle or Method I (e.g. electronic light obscuration or HIAC method) or counting the particles using an optical microscope (Method 2). Prior to conducting the End-User Compatibility Study, a study was performed to determine the feasibility of sample collection and assessment by USP <788> Method I (HIAC analysis). For this study, Compound I-tetrahydrate (4 mg/mL) was mixed with Lactated Ringers IV Solution in a 2:1 ratio of Lactated Ringers solution to Compound I-tetrahydrate and held in a glass or Nalgene plastic container. Samples were held for 1, 5, 10, 15, 20, 25 and 30 minutes and analyzed by USP <788> Method 1 using a HIAC electronic light obscuration particle counter. […] This short time duration precluded the use of USP <788> Method 1 (HIAC) due to the large sample volumes (˜25 mL) and length of time required to collect this volume of sample, drop wise, from the infusion set.

[3] = Exposure of solids to fixed relative humidity for 11 days, XRPD; type: physicochemical; conditions: for form after exposure to humidity: 11 days
Text: To determine relative humidity boundaries for conversion between Form 2 and Form 3, solids of Form 2 were exposed to P2O5 conditions (˜0% RH), 11%, and 23% RH. The solids were held at the specified humidities for 11 days to see if the longer duration would result in the presence of Form 3.

[4] = IV formulation end user compatibility study, microscopic particulate examination; type: physicochemical
Experimental: For the high concentration, […] of Compound I-tetrahydrate (4.0 mg/mL) was injected into a BBraun partial additive bag (PAB) for IV administration, attached to a Y-infusion set line. The other end of the Y infusion set line was connected to Lactated Ringer's Solution. Infusion is performed via the Y infusion set, such that the drug product is mixed with Lactated Ringer's Solution directly prior to administration. A total volume of 100 mL drug product at a rate of 50 mL/hr and 200 mL Lactated Ringer's Solution at a rate of 100 mL/hr were administered in a 2:1 ratio over a two hour period, to deliver 300 mL of eluent at a rate of 150 mL/hr.
The evaluation of particulate matter from collected IV samples was therefore performed by microscopic visual examination utilizing approximately 25 μL of IV co-infusion eluate, collected directly from the terminal end of the IV line, deposited on a microscope slide. […] The specific microscope settings used are shown below. A Positive Control sample containing a USP Particle Count Reference Standard consisting of spherical particles of known sizes between 10 μm and 15 μm (USP reference standard, Cat. No.: 1500502, lot #L0L142) was visualized under the microscope using a 10×10 lens.

[5] = Dynamic vapor sorption (DVS); type: physicochemical
Experimental: The mass uptake of 12% is equal to three equivalents of water; however, the material was not fully dry yet after drying at 0% RH for 24 hours. […] The water uptake and release is not stepwise, and no indication of other hydrates with different ratios of water is present.
Compound I-hydrate Form 2 was also analyzed by DVS (FIG. 14). Form 2 steadily gained 1.1 wt % from 5-95% RH. It underwent complete desorption with minor hysteresis.

[6] = Single dose intravenous infusion in rats, toxicokinetic parameters in serum; type: in vivo, Sprague-Dawley rats
Experimental: Compound I-hydrate Form 2 was formulated in 23% Solutol HS-15 and 70% PG and diluted with Lactated Ringer Solution to a concentration of 0.061 mg/mL. […] Dose volume was 10 mL/Kg and the infusion rate was 120 mL/kg/hr.
Following dosing, a series of 12 blood samples (approximately 0.2 mL each) were collected from the rats in the first 72 hours. Following collection, blood samples were allowed to stand at room temperature for approximately 30 to 60 minutes to clot and then centrifused (1200×g for 10 minutes at approximately 4° C.) and the resulting serum was recovered and stored frozen until analysis. Mean toxicokinetic parameters were calculated (Table 7).

[7] = Polymorph transition study, slurry in water-methanol, XRPD; type: physicochemical; conditions: in the presence of water
Experimental: The Slurry was maintained at 20° C. or at 50° C. for one week then the resulting crystals were analyzed by XRPD to determine its polymorphic form.

[8] = 4.0 mg/mL, Y-infusion with Lactated Ringer's Solution 2:1, 120 min simulated infusion run

stability under various drying conditions ([1]; 15-35 ° C., 600-0 mbar, up to 3 days): stable
Polymorphic form by XRPD after drying ([1]; 15 ° C., 0 mbar, drying time 1 h): Form 2
Polymorphic form by XRPD after drying ([1]; 15 ° C., 0 mbar, drying time 4 h): Form 1
Polymorphic form by XRPD after drying ([1]; 15 ° C., 0 mbar, drying time 24 h): Form 1
Polymorphic form by XRPD after drying ([1]; 15 ° C., 0 mbar, drying time 3 days): Form 1
Polymorphic form by XRPD after drying ([1]; 15 ° C., 400 mbar, drying time 1 h): Form 2
Polymorphic form by XRPD after drying ([1]; 15 ° C., 400 mbar, drying time 4 h): Form 2
Polymorphic form by XRPD after drying ([1]; 15 ° C., 400 mbar, drying time 24 h): Form 2
Polymorphic form by XRPD after drying ([1]; 15 ° C., 400 mbar, drying time 3 days): Form 2
Polymorphic form by XRPD after drying ([1]; 15 ° C., 600 mbar, drying time 1 h): Form 2
Polymorphic form by XRPD after drying ([1]; 15 ° C., 600 mbar, drying time 4 h): Form 2
Polymorphic form by XRPD after drying ([1]; 15 ° C., 600 mbar, drying time 24 h): Form 2
Polymorphic form by XRPD after drying ([1]; 15 ° C., 600 mbar, drying time 3 days): Form 2
Polymorphic form by XRPD after drying ([1]; 25 ° C., 0 mbar, drying time 1 h): Form 2
Polymorphic form by XRPD after drying ([1]; 25 ° C., 0 mbar, drying time 4 h): Form 1
Polymorphic form by XRPD after drying ([1]; 25 ° C., 0 mbar, drying time 24 h): Form 1
Polymorphic form by XRPD after drying ([1]; 25 ° C., 400 mbar, drying time 1 h): Form 2
Polymorphic form by XRPD after drying ([1]; 25 ° C., 400 mbar, drying time 4 h): Form 2
Polymorphic form by XRPD after drying ([1]; 25 ° C., 400 mbar, drying time 24 h): Form 2
Polymorphic form by XRPD after drying ([1]; 25 ° C., 400 mbar, drying time 3 days): Form 2
Polymorphic form by XRPD after drying ([1]; 25 ° C., 600 mbar, drying time 1 h): Form 2
Polymorphic form by XRPD after drying ([1]; 25 ° C., 600 mbar, drying time 4 h): Form 2
Polymorphic form by XRPD after drying ([1]; 25 ° C., 600 mbar, drying time 24 h): Form 2
Polymorphic form by XRPD after drying ([1]; 25 ° C., 600 mbar, drying time 3 days): Form 2
Polymorphic form by XRPD after drying ([1]; 35 ° C., 0 mbar, drying time 1 h): Form 1 and Form 2
Polymorphic form by XRPD after drying ([1]; 35 ° C., 0 mbar, drying time 4 h): Form 1
Polymorphic form by XRPD after drying ([1]; 35 ° C., 0 mbar, drying time 24 h): Form 1
Polymorphic form by XRPD after drying ([1]; 35 ° C., 400 mbar, drying time 1 h): Form 2
Polymorphic form by XRPD after drying ([1]; 35 ° C., 400 mbar, drying time 4 h): Form 2
Polymorphic form by XRPD after drying ([1]; 35 ° C., 400 mbar, drying time 24 h): Form 2
Polymorphic form by XRPD after drying ([1]; 35 ° C., 600 mbar, drying time 1 h): Form 2
Polymorphic form by XRPD after drying ([1]; 35 ° C., 600 mbar, drying time 4 h): Form 2
Polymorphic form by XRPD after drying ([1]; 35 ° C., 600 mbar, drying time 24 h): Form 2
form change under full vacuum ([1]; full vacuum (0 mbar) for four hours, all temperature tested): complete conversion to Form 1
time at which particulate formed at levels exceeding USP acceptance criteria [2]: approximately 10 minutes
form after exposure to humidity ([3]; 11% RH): no form change
form after exposure to humidity ([3]; 23% RH): no form change
form after exposure to humidity ([3]; P2O5 conditions (~0% RH)): converts to Form 3
relative humidity at and above which physically stable ([3]; exposed for over a week): ≥ 11 % RH
filter clogging or stoppage of the infusion pump [4, 8]: No filter clogging
particles by microscope examination in eluent samples [4, 8]: no particles were detected
time material may be infused without filter clogging ([4]; "Y-Line" infusion set): up to 2 hours
XRPD of the post-DVS solids ([5]; after sorption to 95% RH and desorption to 5% RH): No form change
DVS total mass uptake ([5]; continuous isothermal adsorption of water after drying at 0% RH for 24 hours (FIGS. 7 and 8)): 12%
DVS weight gain ([5]; from 5-95% RH): 1.1 wt %
stability in DVS de-sorption cycle ([5]; stable signal down to 10% RH): very stable
stability relative to Crystalline Form 1 [7]: more stable
SMILES: Cc1[nH]c2ccc(F)cc2c1-c1nc2c3cccnc3c3ncccc3c2[nH]1 [Compound I-hydrate Form 2]
AUC(0-inf) ([6]; Sprague-Dawley, rat, male rats serum, 0.5 mg/kg, single IV infusion over 5 min, mean): 130 ng·h/mL
AUC(0-t) ([6]; Sprague-Dawley, rat, male rats serum, 0.5 mg/kg, single IV infusion over 5 min, mean, read-out: AUC0-Tlast): 100 ng·h/mL
clearance ([6]; Sprague-Dawley, rat, male rats serum, 0.5 mg/kg, single IV infusion over 5 min, mean, read-out: Cl (total body clearance per kg body weight) (converted)): 64 mL/min/kg
Cmax ([6]; Sprague-Dawley, rat, male rats serum, 0.5 mg/kg, single IV infusion over 5 min, mean, read-out: Cmax (maximum plasma concentration)): 1750 ng/mL
half-life ([6]; Sprague-Dawley, rat, male rats serum, 0.5 mg/kg, single IV infusion over 5 min, mean, read-out: T1/2 (Terminal elimination half-life) (converted)): 87 min
Tmax ([6]; Sprague-Dawley, rat, male rats serum, 0.5 mg/kg, single IV infusion over 5 min, mean, read-out: Tmax (time to maximum plasma concentration)): 0 h
Vd ([6]; Sprague-Dawley, rat, male rats serum, 0.5 mg/kg, single IV infusion over 5 min, mean, read-out: Vz (volume of distribution per kg body weight)): 8.04 L/kg
AUC % Extrap ([6]; male rats serum, 0.5 mg/kg, single IV infusion over 5 min, mean): 23.1%
AUCs, fold higher than with Compound I-HCl salt ([6]; rats, 0.5 mg/kg IV): approximately 3 fold
Cmax, fold higher than with Compound I-HCl salt ([6]; rats, 0.5 mg/kg IV): approximately 3 fold
volume of distribution, fold higher than Compound I-HCl salt ([6]; rats, 0.5 mg/kg IV): 1.6 fold
